In US20240261362A1, “Use Of Vetiver Product In Preparation Of Drug Having Anti-Inflammatory Effect And Capable Of Improving Animal Immunity” (Henan Agricultural University, priority 2023, published 2024):

Tests used:
Assay type in all cases: in vivo
[1] = NO content in serum of mice (carrageenan model); conditions: 0.5 mg/mouse/d, 7 d; mice of Use Example 6
Text: (§1) Female SPF-grade Kunming mice weighing 18 g±1 g were purchased from the Beijing HFK Bio-technology Co., Ltd., with a license number SCXK (Beijing) 2019-0008. The mice were acclimated to the environment for 3 d before the experiment, and then fed with the experimental drugs. The mice were randomly divided into a blank control group, a DXM group, and high-, medium-, and low-dose groups of the water extract of vetiver (the water extract of vetiver prepared in Example 2) or high-, medium-, and low-dose groups of the Radix Astragali water extract (the Radix Astragali water extract prepared in Comparative Example 1), with 8 mice in each group. The mice in each group were administered continuously for 7 d. At 1 h after the final administration, 1% carrageenan was subcutaneously injected into the sole of the right hind limb to induce inflammation (at 0.1 mL/mouse). At 0 h, 1 h, 2 h, 3 h, and 4 h of Inflammatory treatment, the thickness of the paws of the mice was measured with a micrometer, and the swelling degree and swelling inhibition rate of the paws were calculated.
The mice in each experimental group in Use Example 6 were used as research objects. Blood was collected from eyeballs, serum was separated, stored at −20° C., and level of NO in serum was determined. […]

[2] = tested on: xylene-induced mouse auricle swelling; experiment: Xylene-induced mouse auricle swelling; conditions: 0.5 mg/mouse/d intragastric, 7 d
Text: Female SPF-grade Kunming mice weighing 18 g±1 g were purchased from Beijing HFK Bio-technology Co., Ltd., with a license number SCXK (Beijing) 2019-0008. The mice were acclimated to the environment for 3 d before the experiment, and then fed with the experimental drugs every day at 9 a.m. The mice were randomly divided into a blank control group, a dexamethasone (DXM) group, and high-, medium-, and low-dose groups of the water extract of vetiver (the water extract of vetiver prepared in Example 2) or high-, medium-, and low-dose groups of the Radix Astragali water extract (the Radix Astragali water extract prepared in Comparative Example 1), with 8 mice in each group. The mice in each group were intragastrically administered 1 time a day for 7 consecutive days. At 1 h after the final administration, 30 μL of xylene was added to the right ear of each mouse in each group, and while the left ear was kept as a control. After 30 min of the treatment, the mice were killed by neck breaking, and round ear pieces were collected by punching at a same sites of the left and right ears with a 6 mm diameter, and the ear swelling degrees and swelling inhibition rates were calculated. The results were shown in Table 6, swelling inhibition rate (%)=(average swelling degree of blank group−average swelling degree of administration group)/average swelling degree of blank group×100%.

[3] = tested on: carrageenan-induced mouse pedal swelling; experiment: Carrageenan-induced mouse pedal swelling; conditions: 0.5 mg/mouse/d, 7 d
Text: as §1

For C[C@@H]1C[C@H]2[C@@H]3CCC4=CC(=O)C=C[C@]4(C)[C@@]3(F)[C@@H](O)C[C@]2(C)[C@@]1(O)C(=O)CO [DXM, dexamethasone], the “NO content in serum” value [1] was 7.737 ± 0.431 µmol/mL, the Swelling degree ([2]; 30 min after xylene) was 2.033 ± 0.907 mg and the Swelling inhibition rate ([2]; vs blank group) was 60.646%. The “inhibition rate of pedal swelling” value ([3]; 0 h) was 14.323%, the pedal swelling degree ([3]; 0 h after carrageenan) was 0.995 ± 0.076 and the “inhibition rate of pedal swelling” value ([3]; 1 h) was 29.302%. For the same compound, the pedal swelling degree ([3]; 1 h after carrageenan) was 1.090 ± 0.134, the “inhibition rate of pedal swelling” value ([3]; 2 h) was 34.994% and the pedal swelling degree ([3]; 2 h after carrageenan) was 1.083 ± 0.360. For the same compound, the “inhibition rate of pedal swelling” value ([3]; 3 h) was 25.884%, the pedal swelling degree ([3]; 3 h after carrageenan) was 1.328 ± 0.040 and the “inhibition rate of pedal swelling” value ([3]; 4 h) was 13.173%. For the same compound, the pedal swelling degree ([3]; 4 h after carrageenan) was 1.438 ± 0.172.
